We go through four molecules from PMC3000536 (Tetrahedron letters, 2011).

Broadly, the IC50 is the midpoint of a concentration-inhibition curve. A word on the Ki: it is a measure of affinity in units of concentration, obtained from inhibition or displacement. High values mean weaker binding, low ones tighter binding.

One assay deals with Snail β-Mannosidase. Briefly: Glycosidase inhibition, snail β-mannosidase. It is filed as biochemical. Conditions: read-out: IC50 β-Mannosidase Snail.
In the next assay the target is Almond β-Glucosidase. Briefly: Glycosidase inhibition, almond β-glucosidase. The format is biochemical. The following applies: read-out: IC50 β-Glucosidase Almond.
Assay [1] has as its target T1, Bovine epididymis α-L-Fucosidase (Bos taurus, UniProt Q2KIM0).
T1 sequence (Q2KIM0 23-468): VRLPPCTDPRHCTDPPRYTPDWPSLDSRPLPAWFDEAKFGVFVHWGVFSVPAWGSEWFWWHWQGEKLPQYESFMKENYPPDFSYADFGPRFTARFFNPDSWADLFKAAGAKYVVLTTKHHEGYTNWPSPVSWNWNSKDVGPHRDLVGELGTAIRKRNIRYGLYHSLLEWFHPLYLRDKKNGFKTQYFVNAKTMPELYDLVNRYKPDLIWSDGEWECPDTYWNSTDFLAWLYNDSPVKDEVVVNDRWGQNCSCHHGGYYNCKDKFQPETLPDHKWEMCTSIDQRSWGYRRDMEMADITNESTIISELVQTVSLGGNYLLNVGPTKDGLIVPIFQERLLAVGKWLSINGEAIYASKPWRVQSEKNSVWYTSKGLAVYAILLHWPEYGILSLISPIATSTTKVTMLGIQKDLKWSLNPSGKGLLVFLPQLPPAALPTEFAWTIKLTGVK
As to the kind of experiment: Glycosidase inhibition, bovine epididymis α-L-fucosidase. The format is biochemical.

Another assay concerns the target Rat intestinal maltase. As to the kind of experiment: Glycosidase inhibition, rat intestinal maltase. The format is biochemical. Conditions: read-out: IC50 α-Glucosidase Rat intestinal maltase.
For the next assay, the target named is Rat intestinal sucrase (Rattus norvegicus, UniProt P23739). As to the kind of experiment: Glycosidase inhibition and kinetic analysis, rat intestinal sucrase. Conditions: for Mode of inhibition of rat intestinal sucrase: kinetic analysis.
For another assay, the target named is T2, Jack beans α-Mannosidase (Canavalia ensiformis, UniProt C0HJB3).
T2 sequence (C0HJB3 1-981): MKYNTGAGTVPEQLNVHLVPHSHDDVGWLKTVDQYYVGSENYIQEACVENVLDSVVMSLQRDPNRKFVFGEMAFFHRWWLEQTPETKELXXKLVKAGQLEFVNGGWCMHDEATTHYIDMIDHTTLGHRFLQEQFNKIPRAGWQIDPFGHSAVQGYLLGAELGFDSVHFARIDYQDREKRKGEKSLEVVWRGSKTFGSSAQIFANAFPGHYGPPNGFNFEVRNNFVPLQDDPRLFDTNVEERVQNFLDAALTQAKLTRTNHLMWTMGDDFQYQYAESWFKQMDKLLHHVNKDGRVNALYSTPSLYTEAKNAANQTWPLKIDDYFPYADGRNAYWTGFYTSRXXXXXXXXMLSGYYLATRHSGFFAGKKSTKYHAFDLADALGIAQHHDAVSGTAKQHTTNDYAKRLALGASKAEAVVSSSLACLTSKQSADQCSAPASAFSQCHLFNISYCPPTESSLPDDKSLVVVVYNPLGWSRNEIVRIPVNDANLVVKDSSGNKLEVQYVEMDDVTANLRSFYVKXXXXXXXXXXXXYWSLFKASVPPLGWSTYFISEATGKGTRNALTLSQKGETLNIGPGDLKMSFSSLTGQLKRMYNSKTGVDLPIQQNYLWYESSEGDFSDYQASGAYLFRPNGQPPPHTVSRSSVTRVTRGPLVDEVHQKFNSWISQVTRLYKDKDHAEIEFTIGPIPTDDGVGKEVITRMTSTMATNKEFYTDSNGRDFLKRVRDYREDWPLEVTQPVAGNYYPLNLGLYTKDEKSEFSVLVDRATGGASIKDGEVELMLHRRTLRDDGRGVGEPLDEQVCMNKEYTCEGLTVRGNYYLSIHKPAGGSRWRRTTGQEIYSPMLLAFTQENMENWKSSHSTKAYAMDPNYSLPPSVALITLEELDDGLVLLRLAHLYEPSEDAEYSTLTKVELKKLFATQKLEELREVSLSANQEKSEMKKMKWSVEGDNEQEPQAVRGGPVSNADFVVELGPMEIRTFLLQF
As to the kind of experiment: Glycosidase inhibition, jack beans α-mannosidase. The format is biochemical.

Assay [2] has as its target T3, Rat intestinal cellobiase (Rattus norvegicus, UniProt Q02401).
T3 sequence (Q02401 868-1928): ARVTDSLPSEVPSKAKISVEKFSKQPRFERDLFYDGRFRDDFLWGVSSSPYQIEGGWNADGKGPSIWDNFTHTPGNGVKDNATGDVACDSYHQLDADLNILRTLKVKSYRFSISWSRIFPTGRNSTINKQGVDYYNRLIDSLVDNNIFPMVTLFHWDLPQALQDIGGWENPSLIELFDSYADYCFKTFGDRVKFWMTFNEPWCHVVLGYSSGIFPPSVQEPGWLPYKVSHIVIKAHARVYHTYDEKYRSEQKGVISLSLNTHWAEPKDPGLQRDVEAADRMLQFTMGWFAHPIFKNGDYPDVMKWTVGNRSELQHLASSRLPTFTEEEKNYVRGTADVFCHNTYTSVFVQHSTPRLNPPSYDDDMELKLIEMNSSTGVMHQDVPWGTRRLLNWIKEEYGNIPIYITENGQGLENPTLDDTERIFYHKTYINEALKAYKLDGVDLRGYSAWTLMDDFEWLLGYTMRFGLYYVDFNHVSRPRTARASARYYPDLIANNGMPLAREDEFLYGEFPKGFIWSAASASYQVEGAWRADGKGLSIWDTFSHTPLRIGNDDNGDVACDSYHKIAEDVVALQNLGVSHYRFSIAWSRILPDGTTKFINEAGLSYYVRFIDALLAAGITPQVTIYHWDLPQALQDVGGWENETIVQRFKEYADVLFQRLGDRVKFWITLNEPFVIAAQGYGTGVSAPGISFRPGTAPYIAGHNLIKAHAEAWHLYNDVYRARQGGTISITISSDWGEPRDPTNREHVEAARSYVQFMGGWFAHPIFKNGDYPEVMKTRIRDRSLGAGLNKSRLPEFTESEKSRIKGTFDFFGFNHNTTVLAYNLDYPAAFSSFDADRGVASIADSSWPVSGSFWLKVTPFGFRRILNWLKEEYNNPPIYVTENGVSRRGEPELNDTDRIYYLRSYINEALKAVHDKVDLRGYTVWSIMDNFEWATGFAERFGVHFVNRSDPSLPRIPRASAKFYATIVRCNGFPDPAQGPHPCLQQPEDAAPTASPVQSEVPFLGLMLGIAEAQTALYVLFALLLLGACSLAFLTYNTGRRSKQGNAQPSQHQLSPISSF
As to the kind of experiment: Glycosidase inhibition, rat intestinal cellobiase. The format is biochemical.

The target in assay [3] is Coffee beans α-Galactosidase (Coffea arabica, UniProt Q42656). Briefly: Glycosidase inhibition, coffee beans α-galactosidase. The format is biochemical.
Sequence of Coffee beans α-Galactosidase (Q42656 16-378): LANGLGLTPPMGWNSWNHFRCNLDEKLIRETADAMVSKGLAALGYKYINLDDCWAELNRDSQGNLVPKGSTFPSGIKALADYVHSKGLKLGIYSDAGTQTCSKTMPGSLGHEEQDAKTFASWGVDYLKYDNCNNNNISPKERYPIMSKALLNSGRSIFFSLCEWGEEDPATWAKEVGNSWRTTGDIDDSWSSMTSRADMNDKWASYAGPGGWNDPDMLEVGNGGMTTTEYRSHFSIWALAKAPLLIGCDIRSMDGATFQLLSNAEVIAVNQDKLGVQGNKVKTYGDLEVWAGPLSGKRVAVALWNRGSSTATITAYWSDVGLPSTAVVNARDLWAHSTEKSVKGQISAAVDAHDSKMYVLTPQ

Sequence of Rat intestinal sucrase (P23739 whole entry): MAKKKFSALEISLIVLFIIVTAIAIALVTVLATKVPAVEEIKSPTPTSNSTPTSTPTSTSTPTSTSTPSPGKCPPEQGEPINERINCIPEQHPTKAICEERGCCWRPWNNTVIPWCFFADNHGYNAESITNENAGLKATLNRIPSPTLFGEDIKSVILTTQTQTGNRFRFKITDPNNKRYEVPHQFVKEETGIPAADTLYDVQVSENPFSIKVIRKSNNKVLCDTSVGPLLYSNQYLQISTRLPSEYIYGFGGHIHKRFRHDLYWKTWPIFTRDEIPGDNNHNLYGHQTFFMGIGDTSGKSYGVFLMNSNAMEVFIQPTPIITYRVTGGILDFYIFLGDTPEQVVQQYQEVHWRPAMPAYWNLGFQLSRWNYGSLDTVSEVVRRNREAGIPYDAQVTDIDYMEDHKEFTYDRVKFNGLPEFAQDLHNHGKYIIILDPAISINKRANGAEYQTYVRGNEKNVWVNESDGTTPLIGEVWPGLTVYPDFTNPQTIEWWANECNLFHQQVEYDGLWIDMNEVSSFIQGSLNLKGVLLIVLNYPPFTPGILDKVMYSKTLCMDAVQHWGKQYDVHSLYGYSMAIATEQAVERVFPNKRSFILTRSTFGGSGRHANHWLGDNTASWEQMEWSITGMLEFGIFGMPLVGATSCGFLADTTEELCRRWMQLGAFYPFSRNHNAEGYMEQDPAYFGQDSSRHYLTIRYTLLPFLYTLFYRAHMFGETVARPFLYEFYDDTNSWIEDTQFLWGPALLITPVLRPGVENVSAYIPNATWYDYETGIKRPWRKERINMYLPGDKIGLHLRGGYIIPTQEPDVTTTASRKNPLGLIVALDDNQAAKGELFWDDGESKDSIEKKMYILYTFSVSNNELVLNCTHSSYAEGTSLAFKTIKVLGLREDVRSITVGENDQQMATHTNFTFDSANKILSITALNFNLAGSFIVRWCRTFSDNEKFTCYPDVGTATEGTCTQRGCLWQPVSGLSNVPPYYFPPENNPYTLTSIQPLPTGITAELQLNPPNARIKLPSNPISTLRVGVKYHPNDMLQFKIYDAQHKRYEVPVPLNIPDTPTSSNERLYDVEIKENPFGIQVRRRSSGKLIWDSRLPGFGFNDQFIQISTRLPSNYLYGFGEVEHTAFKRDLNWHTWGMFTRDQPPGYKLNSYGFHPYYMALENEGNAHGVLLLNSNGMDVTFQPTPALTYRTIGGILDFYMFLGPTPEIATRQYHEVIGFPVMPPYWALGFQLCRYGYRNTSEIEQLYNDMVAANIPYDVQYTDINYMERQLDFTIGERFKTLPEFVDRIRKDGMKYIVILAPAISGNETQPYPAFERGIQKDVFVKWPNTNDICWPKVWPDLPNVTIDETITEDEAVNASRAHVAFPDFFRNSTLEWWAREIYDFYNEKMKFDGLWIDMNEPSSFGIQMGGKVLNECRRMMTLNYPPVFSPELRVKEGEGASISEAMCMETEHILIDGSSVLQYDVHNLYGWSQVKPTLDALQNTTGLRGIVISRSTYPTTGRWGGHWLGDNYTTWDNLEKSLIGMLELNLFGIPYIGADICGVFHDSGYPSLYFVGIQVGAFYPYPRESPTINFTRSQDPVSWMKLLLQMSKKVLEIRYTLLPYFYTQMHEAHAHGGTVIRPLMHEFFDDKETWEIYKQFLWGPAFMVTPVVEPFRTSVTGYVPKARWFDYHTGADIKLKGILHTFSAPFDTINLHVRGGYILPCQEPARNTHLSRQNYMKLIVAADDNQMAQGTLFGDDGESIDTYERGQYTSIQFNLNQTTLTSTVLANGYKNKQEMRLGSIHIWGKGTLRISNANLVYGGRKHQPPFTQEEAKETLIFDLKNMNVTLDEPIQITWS

`C[C@]1(CO)NC[C@@H](O)[C@@H]1O` [4-C-Me-DAB 1D, 1,4-dideoxy-1,4-imino-4-C-methyl-D-arabinitol]: the IC50 on Snail β-Mannosidase is above 1000 µM; at Almond β-Glucosidase, above 1000 µM; in assay [1], above 1000 µM; on Rat intestinal maltase, 0.74 µM; at Rat intestinal sucrase it was 0.41 µM; against Jack beans α-Mannosidase, above 1000 µM. The 50% inhibitory concentration (IC50) in assay [2] and in assay [3] was above 1000 µM throughout. The molecule further came in with a Ki at Rat intestinal sucrase of 0.89 µM. Further, the “Mode of inhibition of rat intestinal sucrase” value at Rat intestinal sucrase (listed as 1D) is listed as “competitive inhibitor”; on Rat intestinal sucrase (listed as 4-C-Me-DAB), “competitive”.

Take `OC[C@]1(O)CNC[C@@H]1O` [isoLAB 2L]: the concentration for half-maximal inhibition (IC50) (on Snail β-Mannosidase; at Almond β-Glucosidase; in assay [1]; on Rat intestinal maltase; against Rat intestinal sucrase; against Jack beans α-Mannosidase) was above 1000 µM in each case. Moreover, the 50% inhibitory concentration (IC50) in assay [2] and in assay [3] was above 1000 µM throughout.

With `OC[C@@]1(O)CNC[C@H]1O` [isoDAB 2D], the half-inhibitory concentration (IC50) on Snail β-Mannosidase was above 1000 µM; on Almond β-Glucosidase, above 1000 µM; in assay [1] it was above 1000 µM; at Rat intestinal maltase, 24 µM; against Rat intestinal sucrase, 15 µM; against Jack beans α-Mannosidase, above 1000 µM. Further, the IC50 in assay [2] and in assay [3] was above 1000 µM each time.

As for `C[C@@]1(CO)NC[C@H](O)[C@H]1O` [4-C-Me-LAB 1L], the IC50 at Snail β-Mannosidase is above 1000 µM; at Almond β-Glucosidase, above 1000 µM; in assay [1], above 1000 µM; at Rat intestinal maltase, 2.4 µM; against Jack beans α-Mannosidase it was above 1000 µM; in assay [2], above 1000 µM. In assay [3], this molecule displayed an IC50 above 1000 µM. The affinity at Rat intestinal sucrase, expressed as Ki, was 0.95 µM. Besides, the results for the “Mode of inhibition of rat intestinal sucrase” value at Rat intestinal sucrase (listed as 1L) and at Rat intestinal sucrase (listed as 4-C-Me-LAB) were “non-competitive inhibitor” and “non-competitive”, respectively.
